Patent US20230017532A1 (Hoffmann-La Roche Inc., priority 2018, published 2023)
Where a name gives a salt, the structure may show the parent alone.

The molecules below were run on Acinetobacter baumannii ATCC17978 (assay: Antimicrobial susceptibility testing: 90% growth inhibitory concentration (IC90) determination, Iso-Sensitest broth, OD 600 nm). Details: 90% growth inhibitory concentration, Acinetobacter baumannii ATCC17978, Iso-Sensitest broth, OD 600 nm over 16 h; read-out: ATCC 17978 IC90.
Type: cell-based
Outline: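 Growth of bacteria (~5×10^5 CFU/ml, Iso-Sensitest medium, 35±2 °C) was followed by OD at 600 nm at 20-min intervals over 16 h against a 10-point twofold compound series (e.g. 50–0.097 μM final). Concentration giving 90% inhibition in log phase was reported.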

Going from `CCc1cc(Nc2nccn3c(-c4ccc(OC)c(F)c4F)cnc23)ccc1C(=O)NCCNCCN` [Example 186, N-[2-(2-aminoethyl-amino)ethyl]-4-[[3-(2,3-difluoro-4-methoxyphenyl)imidazo[1,2-a]pyrazin-8-yl]amino]-2-ethyl-benzamide;2,2,2-trifluoroacetic acid] to `CCc1cc(Nc2nccn3c(-c4ccc(OCC#N)c(F)c4F)cnc23)ccc1C(=O)NCCOCCN` [Example 53, N-(2-(2-aminoethoxy)ethyl)-4-((3-(4-(cyanomethoxy)-2,3-difluorophenyl)imidazo[1,2-a]pyrazin-8-yl)amino)-2-ethylbenzamide], the IC90 falls from 660 nM to 130 nM (5.1-fold).

Same assay, conditions: Acinetobacter baumannii, ATCC17978, 16 h, 90% growth inhibitory concentration, Acinetobacter baumannii ATCC17978, Iso-Sensitest broth, OD 600 nm over 16 h; read-out: ATCC 17978 IC90

Compared with `COc1ccc(-c2cnc3c(Nc4ccc(C(=O)NCCOCC(=O)N5CCNCC5)c(C)c4)nccn23)cc1F` [Example 105, 4-[[3-(3-fluoro-4-methoxyphenyl)imidazo[1,2-a]pyrazin-8-yl]amino]-2-methyl-N-[2-(2-oxo-2-piperazin-1-ylethoxy)ethyl] benzamide], `Cc1cc(Nc2nccn3c(-c4ccc(OC(F)F)cc4)cnc23)ccc1C(=O)NCCOCCN1CCNCC1` [Example 134, 4-[[3-[4-(difluoromethoxy)phenyl]imidazo [1,2-a]pyrazin-8-yl]amino]-2-methyl-N-[2-(2-piperazin-1-ylethoxy)ethyl] benzamide; hydrochloride] is 1.7-fold higher in IC90: 480 nM for the first, 800 nM for the second.

`C#CCOc1ccc(-c2cnc3c(Nc4ccc(C(=O)NCCOCCN)c(C)c4)nccn23)cc1` [Example 28, N-[2-(2-Aminoethoxy)ethyl]-2-methyl-4-[[3-(4-prop-2-ynoxyphenyl)imidazo[1,2-a]pyrazin-8-yl]amino]benzamide; formic acid] and `Cc1cc(Nc2nccn3c(-c4ccc(OCC#CCO)cc4)cnc23)ccc1C(=O)NCCOCCN` [Example 29, N-[2-(2-aminoethoxy)ethyl]-4-[[3-[4-(4-hydroxybut-2-ynoxy)phenyl]imidazo[1,2-a]pyrazin-8-yl]amino]-2-methyl-benzamide formate] are the same in IC90: 120 nM for the first, 120 nM for the second.

First: COc1ccc(-c2cnc3c(Nc4ccc(C(=O)N(CCC#N)CCCCNCCC#N)c(C)c4)nccn23)cc1F [Example 165, N-(2-cyanoethyl)-N-[4-(2-cyanoethyl-amino)butyl]-4-[[3-(3-fluoro-4-methoxyphenyl)imidazo[1,2-a]pyrazin-8-yl]amino]-2-methylbenzamide]
Second: CCc1cc(Nc2nccn3c(-c4ccc(OC)c(F)c4F)cnc23)ccc1C(=O)NCCCCNCC(=O)O [Example 197, (4-(4-((3-(2,3-difluoro-4-methoxyphenyl)imidazo[1,2-a]pyrazin-8-yl)amino)-2-ethylbenzamido)butyl)glycine hydrochloride]
The IC90 of the first is 4.1-fold higher: 1500 nM for the first, 370 nM for the second.

Going from `COCC#CCOc1ccc(-c2cnc3c(Nc4ccc(C(=O)NCCOCCN)c(C)c4)nccn23)cc1` [Example 93, N-[2-(2-aminoethoxy)ethyl]-4-[[3-[4-(4-methoxy-but-2-ynoxy)phenyl]imidazo[1,2-a]pyrazin-8-yl]amino]-2-methylbenzamide; formic acid] to `Cc1cc(Nc2nccn3c(-c4ccc(OC(F)F)cc4)cnc23)ccc1C(=O)NCCOCCOCCOCCN` [Example 17, N-(2-(2-(2-(2-aminoethoxy)ethoxy)ethoxy)ethyl)-4-((3-(4-(difluoromethoxy)phenyl)imidazo[1,2-a]pyrazin-8-yl)amino)-2-methylbenzamide], the IC90 rises from 280 nM to 1100 nM (3.9-fold).

First: CN(CCOCCN1CCCC(C(=O)O)C1)C(=O)c1ccc(Nc2nccn3c(-c4ccc(OCC#N)c(F)c4F)cnc23)cc1Cl (stereo not drawn) [Example 176, 1-[2-[2-[[2-chloro-4-[[3-[4-(cyanomethoxy)-2,3-difluorophenyl]imidazo[1,2-a]pyrazin-8-yl]amino]benzoyl]-methylamino]ethoxy]ethyl] piperidine-3-carboxylic acid; formic acid]
Second: COc1ccc(-c2cnc3c(Nc4ccc(C(=O)NCCOCCN5CCNC(=O)C5)c(C)c4)nccn23)c(F)c1F [Example 3, 4-[[3-(2,3-difluoro-4-methoxy-phenyl)imidazo[1,2-a]pyrazin-8-yl]amino]-2-methyl-N-[2-[2-(3-oxopiperazin-1-yl)ethoxy]ethyl]benzamide;2,2,2-trifluoroacetic acid]
The IC90 of the first is 3.2-fold higher: 1200 nM for the first, 380 nM for the second.

`COc1ccc(-c2cnc3c(Nc4ccc(C(=O)NCCOCCN5CCN(C)CC5)c(C)c4)nccn23)cc1` [Example 121, 4-[[3-(4-methoxyphenyl)imidazo[1,2-a]pyrazin-8-yl]amino]-2-methyl-N-[2-[2-(4-methylpiperazin-1-yl)ethoxy]ethyl] benzamide] and `COc1ccc(-c2cnc3c(Nc4ccc(C(=O)NCCOCCN5CCOCC5)c(C)c4)nccn23)cc1` [Example 106, 4-[[3-(4-methoxyphenyl)imidazo[1,2-a]pyrazin-8-yl]amino]-2-methyl-N-[2-(2-morpholin-4-ylethoxy)ethyl] benzamide] are within 1.5-fold of each other in IC90: 620 nM for the first, 480 nM for the second.

Compared with `CCc1cc(Nc2nccn3c(-c4ccc(OC)c(F)c4F)cnc23)ccc1C(=O)NCCN(C)CCN` [Example 168, N-[2-[2-aminoethyl (methyl)amino]ethyl]-4-[[3-(2,3-difluoro-4-methoxyphenyl)imidazo[1,2-a]pyrazin-8-yl]amino]-2-ethylbenzamide; hydrochloride], `CCc1cc(Nc2nccn3c(-c4ccc(OC)c(F)c4F)cnc23)ccc1C(=O)NCCOCCN` [Example 86] is 2.4-fold lower in IC90: 120 nM for the first, 50 nM for the second.

First: COc1ccc(-c2cnc3c(Nc4cc(F)c(C(=O)NCCOCCN)c(F)c4)nccn23)c(F)c1F [Example 59, N-(2-(2-aminoethoxy)ethyl)-4-((3-(2,3-difluoro-4-methoxy-phenyl)imidazo[1,2-a]pyrazin-8-yl)amino)-2,6-difluoro-benzamide]
Second: Cc1cc(Nc2nccn3c(-c4ccc(Cl)c(F)c4F)cnc23)ccc1C(=O)NCCOCCN [Example 88, N-[2-(2-aminoethoxy)ethyl]-4-[[3-(4-chloro-2,3-difluorophenyl)imidazo[1,2-a]pyrazin-8-yl]amino]-2-methylbenzamide; hydrochloride]
The IC90 of the first is 1.6-fold lower: 130 nM for the first, 210 nM for the second.

Compared with `Cc1cc(Nc2nccn3c(-c4ccc(OC(F)F)cc4)cnc23)ccc1C(=O)NCCOCCOCCOCCO` [Example 152, 4-[[3-[4-(difluoro-methoxy)phenyl]imidazo [1,2-a]pyrazin-8-yl]amino]-N-[2-[2-[2-(2-hydroxyethoxy)ethoxy]ethoxy]ethyl]-2-methylbenzamide], `Cc1cc(Nc2nccn3c(-c4ccc(OC(F)F)cc4)cnc23)ccc1C(=O)NCCOCCNC(=O)CO` [Example 119, 4-[[3-[4-(difluoromethoxy)phenyl]imidazo [1,2-a]pyrazin-8-yl]amino]-N-[2-[2-[(2-hydroxyacetyl)amino]ethoxy]ethyl]-2-methylbenzamide] is 2.6-fold lower in IC90: 1600 nM for the first, 610 nM for the second.

First: COc1ccc(-c2cnc3c(Nc4ccc(C(=O)NCCOCCN)cc4)nccn23)cc1 [Example 15, N-(2-(2-aminoethoxy)ethyl)-4-((3-(4-methoxyphenyl)imidazo[1,2-a]pyrazin-8-yl)amino)benzamide hydrochloride]
Second: Cc1cc(Nc2nccn3c(-c4ccc(OC(F)F)cc4)cnc23)ccc1C(=O)NCCOCCN1CCCCC1 [Example 95, 4-[[3-[4-(difluoromethoxy)phenyl]imidazo [1,2-a]pyrazin-8-yl]amino]-2-methyl-N-[2-(2-piperidin-1-ylethoxy)ethyl] benzamide]
The IC90 of the first is 14-fold higher: 3800 nM for the first, 280 nM for the second.

Going from `CCc1cc(Nc2nccn3c(-c4ccc(Cl)c(F)c4F)cnc23)ccc1C(=O)NCCCNC` [Example 192, 4-[[3-(4-chloro-2,3-difluorophenyl)imidazo[1,2-a]pyrazin-8-yl]amino]-2-ethyl-N-[3-(methyl-amino)propyl] benzamide; hydrochloride] to `CCc1cc(Nc2nccn3c(-c4ccc(Cl)c(F)c4F)cnc23)ccc1C(=O)NCCOCCN` [Example 9, N-(2-(2-aminoethoxy)ethyl)-4-((3-(4-chloro-2,3-difluorophenyl)imidazo[1,2-a]pyrazin-8-yl)amino)-2-ethylbenzamide hydrochloride], the IC90 falls from 1600 nM to 160 nM (10-fold).

Going from `CCc1cc(Nc2nccn3c(-c4ccc(OC)c(F)c4F)cnc23)ccc1C(=O)NCCCCCNCC(=O)O` [Example 50, (5-(4-((3-(2,3-difluoro-4-methoxyphenyl)imidazo[1,2-a]pyrazin-8-yl)amino)-2-ethylbenzamido)pentyl)glycine hydrochloride] to `Cc1cc(Nc2nccn3c(-c4ccc(OC(F)F)cc4)cnc23)ccc1C(=O)NCCOCCNC(=O)CCC(=O)O` [Example 78, 4-[2-[2-[[4-[[3-[4-(difluoromethoxy)phenyl]imidazo [1,2-a]pyrazin-8-yl]amino]-2-methylbenzoyl]amino]ethoxy]ethylamino]-4-oxobutanoic acid], the IC90 rises from 190 nM to 1200 nM (6.3-fold).

Same assay, conditions: Acinetobacter baumannii, ATCC17978, 16 h, read-out: ATCC 17978 IC90

Compared with `COc1ccc(-c2cnc3c(Nc4cc(C)c(C(=O)NCCOCCN)c(F)c4)nccn23)c(F)c1F` [Example 58, N-(2-(2-Aminoethoxy)ethyl)-4-((3-(2,3-difluoro-4-methoxyphenyl)imidazo[1,2-a]pyrazin-8-yl)amino)-2-fluoro-6-methylbenzamide formate], `COc1ccc(-c2cnc3c(Nc4ccc(C(=O)NCCOCCN)c(C)c4)nccn23)cc1F` [Example 36, N-(2-(2-aminoethoxy)ethyl)-4-((3-(3-fluoro-4-methoxyphenyl)imidazo[1,2-a]pyrazin-8-yl)amino)-2-methylbenzamide hydrochloride] is 3.1-fold higher in IC90: 51 nM for the first, 160 nM for the second.

Going from `Cc1cc(Nc2nccn3c(-c4ccc(F)cc4)cnc23)ccc1C(=O)NCCOCCN` [Example 31, N-(2-(2-aminoethoxy)ethyl)-4-((3-(4-fluorophenyl)imidazo[1,2-a]pyrazin-8-yl)amino)-2-methylbenzamide hydrochloride] to `COc1ccc(-c2cnc3c(Nc4ccc(C(=O)NCCOCCN)c(C)c4)nccn23)cc1Cl` [Example 30, N-(2-(2-aminoethoxy)ethyl)-4-((3-(3-chloro-4-methoxyphenyl)imidazo[1,2-a]pyrazin-8-yl)amino)-2-methylbenzamide hydrochloride], the IC90 falls from 950 nM to 140 nM (6.8-fold).
